Source: patent US7989618B2, “Linezolid crystalline hydrate form and linezolid salts” (DiPharma Francis s.r.l., priority 2007, dated 2011)
Blank lines part the entries; values can stand above or below the compound they belong to.

Legend:
[1] = as stated in US 2006/0142283 / WO 2005/035530; cited from earlier work
[2] = electrostatic character of the crystals; type: physicochemical; conditions: contrary to the known crystalline Form II
[3] = hygroscopicity of the isolated solid; type: physicochemical; conditions: amorphous solid

Compound: CC(=O)NC[C@H]1CN(c2ccc(N3CCOCC3)c(F)c2)C(=O)O1 [Form III, Linezolid Form III]
- electrostatic character and compactness compared with Form II (in words) [1]: more compact and less electrostatic than the Form II

- electrostatic character (in words) [2]: not electrostatic
Compound: CC(=O)NC[C@H]1CN(c2ccc(N3CCOCC3)c(F)c2)C(=O)O1 [linezolid hemihydrate, Linezolid Hemihydrate]

Compound: Linezolid Sulfate
- hygroscopicity (in words) [3]: hygroscopic
